Nc1n[nH]c(=S)s1
solubility (mole fraction)
Conditions	283.15 K	288.15 K	293.15 K	298.15 K	303.15 K	308.15 K	313.15 K	318.15 K	323.15 K
in acetone	0.0101	0.0107	0.0114	0.0121	0.0129	0.0135	0.0142	0.015	0.0158
in cyclohexanone	0.0325	0.0343	0.036	0.0378	0.0397	0.0415	0.0433	0.0449	0.0467
in ethanol	0.00402	0.00442	0.00486	0.00526	0.00578	0.00629	0.00684	0.00741	0.008
in ethyl acetate	0.00203	0.00222	0.00242	0.00263	0.0028	0.00301	0.00326	0.0035	0.00374
in isobutanol	0.00148	0.0017	0.00197	0.00225	0.00257	0.00289	0.00333	0.00376	0.0042
in isopropanol	0.00224	0.00259	0.00302	0.00351	0.00397	0.00447	0.00501	0.0057	0.0065
in methanol	0.00454	0.00505	0.00553	0.00617	0.00676	0.00737	0.00806	0.00882	0.00961
in methyl acetate	0.0022	0.00239	0.0026	0.00285	0.00308	0.00332	0.00361	0.00386	0.00411
in n-butanol	0.00216	0.00243	0.00284	0.00327	0.00372	0.00427	0.0048	0.00546	0.0061
in n-butyl acetate	0.00158	0.00172	0.00189	0.00205	0.00221	0.0024	0.0026	0.00283	0.00304
in n-propanol	0.0022	0.00259	0.00293	0.00341	0.00387	0.0043	0.00489	0.00561	0.00629
in n-propyl acetate	0.00183	0.00197	0.00212	0.00228	0.00243	0.00259	0.00278	0.00295	0.00316
in sec-butanol	0.00247	0.0029	0.00337	0.00397	0.00451	0.0051	0.00584	0.00667	0.00768
